Measurements reported in patent publication US20190142721A1, “COMPOSITION CONTAINING SUBSTANCE FOR REGULATING EXPRESSON OF ABH ANTIGENS” (AMOREPACIFIC CORPORATION, priority 2014, published 2019).

How the values were obtained:
B antigen (ABH antigen) = experiment: Effect of increasing the expression of B antigen in HaCaT cell line (western blot); assay type: cell-based; conditions: HaCaT cells, 2 μg/ml, 48 hours; for expression of B type antigen: western blot, FIG. 2; for expression of ABH antigen: data not shown
Experimental: The effect of various kinds of compounds on the expression of ABH antigen was examined. For this purpose, HaCaT cells (provided by Prof. Dr. N E Fusenig, DKFZ Heidelberg, Germany) were cultured in 10% FBS-DMEM for 24 hours in a 35 mm dish and then cultured in 0% FBS-DMEM for 24 hours to make to a starvation state.
Again, while replacing the medium with 0% FBS-DMEM, various kinds of compounds as test substances were treated with HaCaT cells at a concentration of 2 μg/ml, respectively, and cultured for 48 hours. At this time, for comparison, the control group was treated with DMSO at the same concentration as the sample. […] In case where these three compounds were treated, proteins were extracted from the cells, the cell lysate was loaded in the same amount, and then the expression of type B antigen was examined by western blot. Alpha-tubulin protein was used as a control group.

5α-reductase = target: T1, 5α-reductase (Homo sapiens, UniProt P31213); experiment: Inhibitory effect on 5α-reductase activity: conversion of [14C]testosterone to [14C]dihydrotestosterone in HEK 293-5α R2 cells; assay type: cell-based; conditions: for Inhibition rate (%) / Conversion rate (%): 2 μg/ml, 2 hours, HEK 293-5α R2 cells; for Inhibition rate (%): relative to conversion rate of control group; for Conversion rate (%): radioactivity at DHT region/total radioactivity, control group 48
T1 construct: 3×FLAG; expressed in transfected cells; host or cells: HEK 293
T1 sequence (P31213 1-254): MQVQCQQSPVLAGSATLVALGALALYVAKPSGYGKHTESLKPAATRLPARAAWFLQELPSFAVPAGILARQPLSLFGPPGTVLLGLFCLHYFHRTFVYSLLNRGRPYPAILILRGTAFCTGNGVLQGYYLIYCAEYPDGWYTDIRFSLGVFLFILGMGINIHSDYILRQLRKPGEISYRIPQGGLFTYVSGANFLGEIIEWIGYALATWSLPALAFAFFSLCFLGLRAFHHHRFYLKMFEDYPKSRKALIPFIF
Experimental: In order to evaluate the inhibitory effect on the activity of 5α-reductase, the conversion rate from [^14C] testosterone to [^14C] dihydrotestosterone in HEK 293-5α R2 cells was measured. HEK 293 cells were transfected with p3×FLAG-CMV-5α R2, and the transfected HEK 293 cells (HEK 293-5α R2 cells) were seeded in a 24-well plate, 2.5×10^5 cells per well (Park et al., 2003, JDS. Vol. 31, pp 191-98). The next day, the used culture medium was replaced with a new culture medium containing an enzyme substrate and an inhibitor. The substrate of the culture medium used was 0.05 μCi [^14C]testosterone (Amersham Pharmacia Biotech, UK). […] At this time, for comparison, the negative control used was the group not containing any of the above test substances, while the positive control used was the group in which finasteride was added to the medium at 2 μg/ml and cultured under the same conditions. Subsequently, the culture medium was collected to extract estosterone with 800 μl of ethylacetate. The supernatant organic solvent phase was isolated and dried. The residue was dissolved in 50 μl of ethylacetate and developed on silica plastic sheet kieselgel 60 F254 using an ethylacetate-hexane (1:1) as a developing solvent. The plastic sheet was dried out in the air and measured in regards to the abundance of isotope using a BAS system. The dry plastic sheet together with an X-ray film was put in a bath cassette. After one week, the amount of isotope of testosterone and dihydrotestosterone remaining on the film was measured.

PGE-2 = experiment: Decrease in expression of skin inflammatory factor PGE-2 in UVB-exposed keratinocytes (ELISA); assay type: cell-based, human; conditions: 2 μg/ml, 16 hours, keratinocytes after UVB exposure
Experimental: In order to measure the effect of suppressing the expression of PGE-2 which is a skin inflammatory factor of 1,3-dicaffeoylquinic acid, 1,5-dicaffeoylquinic acid and amentoflavone of the present invention, ELISA (Enzyme Linked ImmunoSorbent Assay) was performed (S E Dunsmore, et al., J Biol Chem, 271: 24576-24582, 1996).
5×10^4 cells of keratinocytes isolated from human epidermal tissue were put in each well of a 24-well plate and immobilized for 24 hours. The culture medium was replaced with a medium not containing FBS and treated with aspirin to remove the activity of prostaglandin biosynthetic enzyme (prostaglandin H2 synthetase, or cyclooxygenase). Two hours after aspirin treatment, each well containing keratinocytes was washed twice with PBS to which 100 μl of PBS was added to each well. The keratinocytes were exposed to […] of ultraviolet radiation under an ultraviolet B (UV B) lamp (Model: F15T8, UV B15W, Sankyo Dennki, Japan). Each well was removed of PBS and supplied with 250 ul of the keratinocyte growth media (Clonetics BioWhittacker, MD, USA).
Here, the substances 1,3-dicaffeoylquinic acid, 1,5-dicaffeoylquinic acid and amentoflavone were treated at a dose of 2 μg/ml, followed by culturing for 16 hours. By taking an appropriate amount of culture supernatant and quantifying PGE-2 biosynthesized for 16 hours, the prostaglandin inhibitory effects of 1,3-dicaffeoylquinic acid, 1,5-dicaffeoylquinic acid and amentoflavone was evaluated. The expression inhibitory effect of PGE-2 was calculated by the following mathematical formula 1, and the results are shown in Table 4 below.
Expression inhibition rate of PGE-2(%)=(A−B)/A*100 [Mathematical Formula 1]
A: Absorbance of well to which test substance was not added
B: Absorbance of the well to which test substance was added

[1] = system: reactive oxygen species (ROS); experiment: Inhibition of formation of reactive oxygen species in UVB-exposed keratinocytes (DCF-DA fluorescence); assay type: cell-based, human; conditions: 2 μg/ml; for ROS, ratio to the ROS of the control group, 0 hr: 0 hr after exposure to 30 mJ/cm^2 of UVB, UVB + untreated 100; for ROS, ratio to the ROS of the control group, 2 hrs: 2 hrs after exposure to 30 mJ/cm^2 of UVB, UVB + untreated 325, untreated 244; for ROS, ratio to the ROS of the control group, 3 hrs: 3 hrs after exposure to 30 mJ/cm^2 of UVB, UVB + untreated 381, untreated 287
Experimental: 5×10^4 cells of Keratinocytes isolated from the human epidermal tissue were put in each well of a 24-well plate and immobilized for 24 hours. After the culture medium was removed, 100 μl of phosphate buffered saline (PBS) solution was added to each well. The keratinocytes were exposed to 30 mJ/cm^2 of ultraviolet radiation under an ultraviolet B (UV B) lamp (Model: F15T8, UV B 15 W, Sankyo Denki Co., Ltd., Japan). Each well was removed of the PBS solution and then supplied with 200 μl1 of the keratinocyte culture medium. The well was treated with 2 μg/ml of 1,3-dicaffeoylquinic acid, 1,5-dicaffeoylquinic acid and amentoflavone as the test substances, respectively. Then, the quantity of the reactive oxygen species (ROS) increased by the UV stimulation was determined at defined time intervals. At this time, for comparison, the quantity of reactive oxygen species was also measured for those not treated with test substance (untreated) and not stimulated with ultraviolet rays and those subjected to ultraviolet stimulation without treatment of the test substance. The quantity of ROS was quantified by referring to Tan's method for measuring the fluorescence of dichlorofluorescin diacetate (DCF-DA) oxidized by ROS (Tan et al., 1998, J. Cell Biol. Vol. 141, pp 1423-1432).

procollagen type(I) = experiment: Promotion of collagen biosynthesis in fibroblasts (procollagen type(I) ELISA); assay type: cell-based; conditions: 2 μg/ml, 24 hours, untreated group as 100
Experimental: The collagen biosynthesis promoting effect of 1,3-dicaffeoylquinic acid, 1,5-dicaffeoylquinic acid and amentoflavone used in the present invention was measured in comparison with TGF-β.
First, 1×10^5 cells of fibroblasts were seeded in each well of a 24-well plate and cultured until they grew to about 90%. This was cultured in a serum-free DMEM medium for 24 hours and then treated with 2 μg/ml of 1,3-dicaffeoylquinic acid, 1,5-dicaffeoylquinic acid, amentoflavone and TGF-β, respectively, and cultured for 24 hours in a CO2 incubator. These supernatant fluids were removed and the procollagen type(I) ELISA kit was used to observe whether procollagen was increased or decreased. The results are shown in Table 6, and the collagen synthesis ability was compared with the untreated group as 100.

skin pore size = experiment: Effect of reducing skin pores in rhino mice; assay type: in vivo; conditions: 0.5 ml of 1% solution applied to rhino mice for 1 week; control group (solvent) 65
Experimental: At this time, for comparison, only 0.5 ml of solvent was applied to one group. The substances were treated for 1 week and the back part was biopsied 24 hours after the last treatment. The epidermis was separated, immersed in 0.5% acetic acid, fixed in 10% formalin and cut vertically at […]. After staining with hematoxylin and eosin, the skin pore size was measured using a mechanical eyepiece micrometer.

SMILES | expression of B type antigen (B antigen (ABH antigen)) | expression of ABH antigen (B antigen (ABH antigen)) | Inhibition rate (%) (5α-reductase) | Conversion rate (%) (5α-reductase) | PGE-2 expression inhibition rate(%) (PGE-2) | ROS, ratio to the ROS of the control group, 0 hr [1] | ROS, ratio to the ROS of the control group, 2 hrs [1] | ROS, ratio to the ROS of the control group, 3 hrs [1] | Collagen synthesis ability (%) (procollagen type(I)) | Skin Pore size (µm) (skin pore size) | inhibition at 2 µg/mL (5α-reductase; HEK2935, read-out: Inhibition rate (%)) [%]
O=C(/C=C/c1ccc(O)c(O)c1)OC1CC(OC(=O)/C=C/c2ccc(O)c(O)c2)(C(=O)O)CC(O)C1O (centres unmarked) [1,3-dicaffeoylquinic acid] | increasing the expression of B type antigen | significantly increase the expression of ABH antigen | 38 | 30 | 28.1 | 100 | 277 | 319 | 142.1 ± 13.1 | 53 | 
O=C(/C=C/c1ccc(O)c(O)c1)O[C@@H]1C[C@](OC(=O)/C=C/c2ccc(O)c(O)c2)(C(=O)O)C[C@@H](O)[C@H]1O [1,5-dicaffeoylquinic acid] | increasing the expression of B type antigen | significantly increase the expression of ABH antigen | 38 | 30 | 32.5 | 100 | 280 | 315 | 144.2 ± 11.0 | 54 | 
O=C(O[C@@H]1Cc2c(O)cc(O)cc2O[C@@H]1c1cc(O)c(O)c(O)c1)c1cc(O)c(O)c(O)c1 [EGCG, reference compound] |  |  |  |  |  |  |  |  |  | 60 | 
CC(C)(C)NC(=O)[C@H]1CC[C@H]2[C@@H]3CC[C@H]4NC(=O)C=C[C@]4(C)[C@H]3CC[C@]12C [Finasteride, finasteride, reference compound] |  |  |  | 27 |  |  |  |  |  |  | 
O=c1cc(-c2ccc(O)c(-c3c(O)cc(O)c4c(=O)cc(-c5ccc(O)cc5)oc34)c2)oc2cc(O)cc(O)c12 [amentoflavone] | increasing the expression of B type antigen | significantly increase the expression of ABH antigen |  | 32 | 30.9 | 100 | 288 | 320 | 147.7 ± 15.8 | 50 | 33
